Test results as given in patent US10407467B2, “Polymyxin derivatives and their use in combination therapy together with different antibiotics” (priority 2013, dated 2019).
Read-outs that look alike come from different tables or passages of the source.

Experiments:
Experiment in all cases: MIC, sole activity (no second agent)
Type in all cases: cell-based
Escherichia coli = conditions: for MIC E. coli ATCC25922 / MIC E. coli NCTC 13441: Table 6A, no second agent, different supplier of Cation-adjusted MHB; for MIC: Escherichia coli
Protocol: (§1) To evaluate the potency and spectrum of the compounds both alone and in combination with another agent, susceptibility testing was performed against up to four strains of each of the four Gram negative pathogens, Escherichia coli, Pseudomonas aeruginosa, Klebsiella pneumoniae and Acinetobacter baumannii.
(§2) The inoculum was prepared by making a direct suspension of isolated colonies (selected from an 18-24 hour Mueller-Hinton agar plate) adjusted to the 0.5 McFarland standard.
(§3) The assays were performed in duplicate.
(§4) In cases where the duplicate values varied by less than 2-fold, the lower of the two values is reported. If a variation of greater than 2-fold was observed, the assay was considered non-valid. Several of the compounds were subjected to multiple tests, and where this is the case, the MIC reflects the modal value obtained.
(§5) MICs were determined as described herein, except that a different supplier of Cation-adjusted MHB was used. […] Values are reported relative to Polymyxin B.

Pseudomonas aeruginosa = conditions: for MIC P. aeruginosa ATCC 27853 / MIC P. aeruginosa CCUG 59347: Table 6A, no second agent, different supplier of Cation-adjusted MHB; for MIC: Pseudomonas aeruginosa
Protocol: as §1, §2, §3, §4, §5

Klebsiella pneumoniae = conditions: for MIC K. pneumoniae ATCC 4352 / MIC K. pneumoniae ATCC BAA-2146: Table 6A, no second agent, different supplier of Cation-adjusted MHB; for MIC: Klebsiella pneumoniae
Protocol: as §1, §2, §3, §4, §5

Acinetobacter baumannii = conditions: for MIC A. baumannii NCTC 13424 / MIC A. baumannii ATCC BAA-747: Table 6A, no second agent, different supplier of Cation-adjusted MHB; for MIC: Acinetobacter baumannii, NCTC13424
Protocol: as §1, §2, §3, §4, §5

Molecule	MIC E. coli ATCC25922 (Escherichia coli)	MIC E. coli NCTC 13441 (Escherichia coli)	MIC P. aeruginosa ATCC 27853 (Pseudomonas aeruginosa)	MIC P. aeruginosa CCUG 59347 (Pseudomonas aeruginosa)	MIC K. pneumoniae ATCC 4352 (Klebsiella pneumoniae)	MIC K. pneumoniae ATCC BAA-2146 (Klebsiella pneumoniae)	MIC A. baumannii NCTC 13424 (Acinetobacter baumannii)	MIC A. baumannii ATCC BAA-747 (Acinetobacter baumannii)	also measured
5-Hydroxypiperidine-3- carbonyl polymyxin B nonapeptide [Example A50]	1 micrograms/mL	2 micrograms/mL	1 micrograms/mL	2 micrograms/mL	0.25 micrograms/mL	2 micrograms/mL	2 micrograms/mL	–	–
CC[C@H]1OC(=O)[C@H](C)[C@@H](O[C@H]2C[C@@](C)(OC)[C@@H](O)[C@H](C)O2)[C@H](C)[C@@H](O[C@@H]2O[C@H](C)C[C@H](N(C)C)[C@H]2O)[C@](C)(O)C[C@@H](C)CN(C)[C@H](C)[C@@H](O)[C@]1(C)O [Azithromycin, reference compound]	–	–	–	–	–	–	–	–	MIC (Escherichia coli; NCTC13441, Table 7F, E. coli NCTC 13441, second agent none, read-out: MIC E. coli NCTC 13441): > 32 µg/mL; MIC (Escherichia coli; Table 7F, E. coli ATCC25922, second agent none, read-out: MIC E. coli ATCC25922): 1 µg/mL; MIC (Pseudomonas aeruginosa; ATCC10145, Table 7F, P. aeruginosa ATCC 10145, second agent none, read-out: MIC P. aeruginosa ATCC 10145): 32 µg/mL; MIC (Klebsiella pneumoniae; CCUG59349, Table 7F, K. pneumoniae CCUG 59349, second agent none, read-out: MIC K. pneumoniae CCUG 59349): > 32 µg/mL; MIC (Klebsiella pneumoniae; Table 7F, K. pneumoniae ATCC4352, second agent none, read-out: MIC K. pneumoniae ATCC4352): 0.25 µg/mL; MIC (Acinetobacter baumannii; Table 7F, A. baumannii NCTC 13424, second agent none): 8 µg/mL
C[C@H]1[C@H](NC(=O)/C(=N\OC(C)(C)C(=O)O)c2csc(N)n2)C(=O)N1S(=O)(=O)O [Aztreonam, reference compound]	–	–	–	–	–	–	–	–	MIC (Escherichia coli; ATCC25922, Second Agent none (Table 7E), read-out: MIC E. coli ATCC25922): ≤ 0.06 µg/mL; MIC (Escherichia coli; NCTC13441, Second Agent none (Table 7E), read-out: MIC E. coli NCTC 13441): > 32 µg/mL; MIC (Pseudomonas aeruginosa; ATCC10145, Second Agent none (Table 7E), read-out: MIC P. aeruginosa ATCC 10145): 4 µg/mL; MIC (Klebsiella pneumoniae; ATCC4352, Second Agent none (Table 7E), read-out: MIC K. pneumoniae ATCC4352): ≤ 0.06 µg/mL; MIC (Klebsiella pneumoniae; CCUG59349, Second Agent none (Table 7E), read-out: MIC K. pneumoniae CCUG 59349): > 32 µg/mL; MIC (Acinetobacter baumannii; Second Agent none (Table 7E), read-out: MIC A. baumannii NCTC 13424): 8 µg/mL
O=C(O)c1cn(C2CC2)c2cc(N3CCNCC3)c(F)cc2c1=O [Ciprofloxacin, reference compound]	–	–	–	–	–	–	–	–	MIC (Escherichia coli; ATCC25922, Second Agent none (Table 7B), read-out: MIC E. coli ATCC25922): ≤ 0.06 µg/mL; MIC (Escherichia coli; CCUG59342, Second Agent none (Table 7B), read-out: MIC E. coli CCUG 59342): 16 µg/mL; MIC (Escherichia coli; NCTC9001, Second Agent none (Table 7B), read-out: MIC E. coli (NCTC9001)): ≤ 0.06 µg/mL; MIC (Pseudomonas aeruginosa; ATCC27853, Second Agent none (Table 7B, by row order), read-out: MIC P. aeruginosa ATCC 27853): 0.125 µg/mL; MIC (Pseudomonas aeruginosa; CCUG59626, Second Agent none (Table 7B, by row order), read-out: MIC P. aeruginosa CCUG 59626): 0.5 µg/mL; MIC (Klebsiella pneumoniae; ATCC4352, Second Agent none (Table 7B, by row order), read-out: MIC K. pneumoniae (ATCC4352)): ≤ 0.06 µg/mL; MIC (Klebsiella pneumoniae; ATCCBAA1706, Second Agent none (Table 7B, by row order), read-out: MIC K. pneumoniae ATCC BAA-1706): 4 µg/mL; MIC (Klebsiella pneumoniae; CCUG59348, Second Agent none (Table 7B), read-out: MIC K. pneumoniae CCUG 59348): > 32 µg/mL; MIC (Klebsiella pneumoniae; NCTC13442, Second Agent none (Table 7B), read-out: MIC K. pneumoniae NCTC 13442): 2 µg/mL; MIC (Acinetobacter baumannii; Second Agent none (Table 7B, by row order), read-out: MIC A. baumannii (NCTC 13424)): 1 µg/mL
CO[C@@H]1[C@@H](OC(N)=O)[C@@H](O)[C@H](Oc2ccc3c(O)c(NC(=O)c4ccc(O)c(CC=C(C)C)c4)c(=O)oc3c2C)OC1(C)C [Novobiocin, reference compound]	–	–	–	–	–	–	–	–	MIC (Escherichia coli; NCTC13441, Table 7H, E. coli NCTC 13441, second agent none, read-out: MIC E. coli NCTC 13441): > 32 µg/mL; MIC (Escherichia coli; Table 7H, E. coli ATCC25922, second agent none, read-out: MIC E. coli ATCC25922): 16 µg/mL; MIC (Pseudomonas aeruginosa; ATCC10145, Table 7H, P. aeruginosa ATCC 10145, second agent none, read-out: MIC P. aeruginosa ATCC 10145): > 32 µg/mL; MIC (Klebsiella pneumoniae; CCUG59349, Table 7H, K. pneumoniae CCUG 59349, second agent none, read-out: MIC K. pneumoniae CCUG 59349): > 32 µg/mL; MIC (Klebsiella pneumoniae; Table 7H, K. pneumoniae ATCC4352, second agent none, read-out: MIC K. pneumoniae ATCC4352): 0.25 µg/mL; MIC (Acinetobacter baumannii; Table 7H, A. baumannii NCTC 13424, second agent none): 4 µg/mL
(1- aminomethylcyclohexane) carbonyl polymyxin B nonapeptide [Example A34]	8 micrograms/mL	>8 micrograms/mL	0.5 micrograms/mL	2 micrograms/mL	8 micrograms/mL	>8 micrograms/mL	>8 micrograms/mL	>8 micrograms/mL	–
(2S)-2-Amino-3- cyclohexanepropanoyl polymyxin B nonapeptide [Example A16]	>8 micrograms/mL	>8 micrograms/mL	1 micrograms/mL	>8 micrograms/mL	>8 micrograms/mL	>8 micrograms/mL	>8 micrograms/mL	>8 micrograms/mL	–
(2S)-Morpholine-2-carbonyl polymyxin B nonapeptide [Example A40]	8 micrograms/mL	4 micrograms/mL	2 micrograms/mL	4 micrograms/mL	4 micrograms/mL	8 micrograms/mL	>8 micrograms/mL	>8 micrograms/mL	–
(2S)-piperazine-2-carbonyl polymyxin B nonapeptide [Example A49]	4 micrograms/mL	4 micrograms/mL	2 micrograms/mL	4 micrograms/mL	2 micrograms/mL	>8 micrograms/mL	>8 micrograms/mL	>8 micrograms/mL	–
(2S,3S)-3-Amino-2-hydroxy- 5-methylhexanoyl polymyxin B decapeptide [Example A18]	8 micrograms/mL	4 micrograms/mL	0.5 micrograms/mL	1 micrograms/mL	4 micrograms/mL	4 micrograms/mL	8 micrograms/mL	4 micrograms/mL	–
(2S,4R)-4-amino-1-(3-amino- 3-cyclohexylpropanoyl)pyrrolidine- 2-carbonyl polymyxin B nonapeptide [Example A29]	>8 micrograms/mL	>8 micrograms/mL	0.25 micrograms/mL	>8 micrograms/mL	>8 micrograms/mL	>8 micrograms/mL	4 micrograms/mL	2 micrograms/mL	–
(R)-4-isobutylpiperazine-2- carbonyl polymyxin B nonapeptide [Example A46]	2 micrograms/mL	2 micrograms/mL	1 micrograms/mL	2 micrograms/mL	2 micrograms/mL	2 micrograms/mL	2 micrograms/mL	8 micrograms/mL	–
